{
  "source": "patent US20240377400A1",
  "about": "“METHODS FOR TREATING A SUBTYPE OF COLORECTAL CANCER” (Cornell University, priority 2021, published 2024)",
  "tested_on": "tumors from Prkci^fl/fl Prkcz^fl/fl Villin-cre (DKO) mice",
  "assay": "scRNAseq and IHC of DKO mouse intestinal tumors treated with PVHA or Galunisertib",
  "format": "in vivo",
  "protocol": "FIG. 3A illustrates the experimental design: Prkci^fl/flPrkcz^fl/fl (DKO) mice were treated either with PVHA (0.0375 mg/Kg twice per week) or Galunisertib (10 mg twice daily) as described. Intestinal tumors were analyzed by scRNAseq.\nTo identify the mechanism of action of PVHA in the treatment of CMS4 tumors, scRNAseq was performed using 10× Genomics Chromium platform on tumors from Prkci^fl/fl Prkcz^fl/fl Villin-cre (DKO) mice (n=5) treated with PVHA for 14 weeks (n=3), as compared to those treated with Galunisertib (GAL) for 17 weeks (n=3), as shown in experimental design (FIG. 3A). Unsupervised clustering identified tumor and normal epithelial cells as well as stromal and immune cells with selective markers for each population (FIGS. 3B-3C). […] Among tumor clusters (0,4,6), a cell population with transcriptomic similarities to the recently identified “revival stem cells” (RSC; high Clu) in the vehicle treated tumors was identified (FIGS. 3F-3G).",
  "data": [
    {"smiles": "Cc1cccc(-c2nn3c(c2-c2ccnc4ccc(C(N)=O)cc24)CCC3)n1", "note": "[GAL, Galunisertib, reference compound]", "values": [
      {"measurement": "Cd8 T cells, cell type proportion", "setting": "scRNAseq T cells", "value": "increase"},
      {"measurement": "fibroblast clusters associated with human CRC (Grem1/Sfrp1, Igf1/Cxcl14), CMS4 subtype (Sfrp2) and tumor initiation (Ptgs2/Spp1)", "setting": "scRNAseq cell-type proportion", "value": "complete elimination"},
      {"measurement": "tumoral goblet population", "setting": "scRNAseq goblet cells", "value": "reduction"},
      {"measurement": "T cells, cell-type proportion", "setting": "scRNAseq immune cells", "value": "increase"},
      {"measurement": "myeloid cells, cell-type proportion", "setting": "scRNAseq immune cells", "value": "decrease"},
      {"measurement": "TAN1 (anti-tumoral neutrophils)", "setting": "scRNAseq myeloid cells", "value": "only increased"},
      {"measurement": "TAN2 (pro-tumoral neutrophils)", "setting": "scRNAseq myeloid cells", "value": "without affecting"},
      {"measurement": "percentage of stromal and immune cells", "setting": "scRNAseq, PVHA 0.0375 mg/Kg twice per week, 14 weeks, Galunisertib 10 mg twice daily, 17 weeks", "value": "decreased"},
      {"measurement": "number of stromal cells", "setting": "scRNAseq, without apparent changes in cell-type proportions", "value": "reduced"}
    ]}
  ]
}
